Where a SMILES comes first, the peptide text is derived from it. Where no end group is shown, it is not given here. Some results are limits rather than exact numbers.

One experiment has as its system human JA2.1 cells infected with the appropriate rVACV.
Assay: not given
The experiment is classed as cell-based, HLA-A*0201 transgenic mice. Set-up: key to Natural processing in human APCs: +, Processed; +/−, weakly processed; −, not processed.
With GLLQFIVFL [WWAV GPC42–50], the “Natural processing in human APCs” value is “+” and the “Recognition of rVACV-infected human target cells by peptide-primed CD8+ T cells” value was “robust”.

Another experiment deals with peptide-pulsed JA2.1 cells.
Assay: not given
The experiment is classed as cell-based, HLA-A*0201 transgenic mice.
Turning to GLLQFIVFL [WWAV GPC42–50], the “Identified as CD8+ T cell epitope after rVACV infection” value is reported as “identified”.

In another experiment the target is HLA-A*0201 (Homo sapiens, UniProt P04439, D140Y/D185E/D98H/E176V/E277Q/G131W/G231S/I119V/I121R/I166T/I218V/L300P/L318F/N151K/N90K/P208A/P217A/Q86G/Q94H/R138H/R169H/T345S). The experiment is described as follows: biochemical. The experiment is classed as binding.
AINIALIAV [SABV GPC18–26]: the midpoint of inhibition, the IC50, lay at 834 nM.

As to LLPDALLFTL [SABV NP547–556], the IC50 turned out to be 77 nM.

With ALNIALIAV [WWAV GPC18–26], the IC50 turned out to be 27 nM.

In turn, SIINHKFCNL [LASV GPC111–120] gave an IC50 of 2120 nM.

For the molecule ALNIALVAV [JUNV GPC18–26], half-maximal inhibition (IC50) required 79 nM.

Regarding `CC(C)C[C@H](NC(=O)[C@H](CC(C)C)NC(=O)[C@H](CC(N)=O)NC(=O)[C@H](CC(C)C)NC(=O)[C@H](CS)NC(=O)[C@H](Cc1c[nH]cn1)NC(=O)[C@H](CCCNC(=N)N)NC(=O)[C@H](CS)NC(=O)[C@H](CC(C)C)NC(=O)[C@@H](N)Cc1ccc(O)cc1)C(=O)O` [LCMV Z49–58] (H-YLCRHCLNLL-OH), 3.9 nM corresponded to half-maximal inhibition (IC50).

In turn, TVIKTLLEV [WWAV NP274–282] showed an IC50 of 276 nM.

In turn, AMPGVLSYV [MACV NP432–440] showed an IC50 of 8.4 nM.

AVYNFATCGI [LCMV GPC34–43] showed an IC50 of 137 nM.

In turn, GLLEWIFRA [SABV GPC142–150] gave an IC50 of 1.2 nM.

On to GLSQFTHTV [MACV NP19–27], for which the IC50 came out at 18 nM.

For GLSQFTQTV [JUNV NP19–27], the midpoint of inhibition, the IC50, lay at 30 nM.

In turn, GLLQFIVFL [WWAV GPC42–50] yielded a concentration for half-maximal inhibition (IC50) below 0.05 nM.

In the next experiment the target is HLA-A*1101 (Homo sapiens, UniProt P04439, A114D/D185E/E176A/F33Y/L180Q/S129P/T187R). The experiment is described as follows: biochemical. The experiment is classed as binding.
Molecule STYYVHENK [SABV GPC90–98] showed an IC50 of 6 nM.

The molecule SIQKNTIFK [MACV NP82–90] displayed an IC50 of 5.5 nM.

On to SSIIRSLPK [WWAV NP439–447], for which the IC50 came out at 2.5 nM.

FTNDSIISH [LCMV GPC112–120] registered an IC50 of 38 nM.

The molecule SSQRDTILK [SABV NP82–90] came in with an IC50 of 9.3 nM.

Turning to KCLNIMLGK [SABV Z64–72], 678 nM corresponded to half-maximal inhibition (IC50).

In the case of LVTFLLLCGR [LASV GPC46–55], the 50% inhibitory concentration (IC50) was above 5000 nM.

Molecule ATVKNVVLR [GTOV L1977–1985] displayed an IC50 of 54 nM.

RTAPPSLYGR [MACV Z27–36] gave a half-maximal inhibitory concentration (IC50) of 8.9 nM.

Molecule LVSFLLLAGR [LCMV GPC46–55] showed an IC50 of 70 nM.

TTYLGPLSCK [LCMV Z24–33] displayed an IC50 of 2.8 nM.

Another experiment concerns HLA-restricted target cells pulsed with peptide.
Assay: not given
The format is cell-based, HLA-A*1101 transgenic mice.
Take LVTFLLLCGR [LASV GPC46–55]: the “% of Epitope response” value was found to be 147%.

By IC50 is commonly meant the concentration that gives 50% inhibition.

The values are drawn from publication PMC2787016 (PLoS Pathogens, 2009).
